Entries after “also recorded” stand apart in the source; their conditions may differ. Read-outs that look alike come from different tables or passages of the source.
Tests used:
[1] = target: T1, NcDIM-5 (Neurospora crassa, UniProt Q8X225); format: biochemical
T1 construct: GST; made in house
T1 sequence (Q8X225 1-331): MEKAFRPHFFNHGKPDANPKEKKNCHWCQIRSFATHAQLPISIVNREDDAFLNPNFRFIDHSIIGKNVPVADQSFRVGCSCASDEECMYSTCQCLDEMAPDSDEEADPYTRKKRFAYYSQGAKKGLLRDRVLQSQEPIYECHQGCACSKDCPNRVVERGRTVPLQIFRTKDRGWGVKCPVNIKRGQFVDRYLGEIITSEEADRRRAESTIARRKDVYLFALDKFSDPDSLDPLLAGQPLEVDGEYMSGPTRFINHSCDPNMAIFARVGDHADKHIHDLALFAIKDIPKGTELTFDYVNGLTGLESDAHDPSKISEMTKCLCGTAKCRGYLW
Procedure: Kinetic behavior for peptide H3(1-53) against NcDIM-S(SAM sat.)—Experiments were conducted following matching CePRMT5 protocol above. Briefly, the 250-μL reaction mixtures from a same row contained 25 mM glycine buffer pH=9.50, 1 mM βME, 10% glycerol, 50 mM NaCl, 4 μM coupling deaminase TM0936, 7.6 nM NcDIM-5 and various peptide concentrations (0.51-12.68 μM; in the first well, peptide acceptor was omitted to account for background signal—natural decomposition of SAM). Reactions started upon addition of SAM (25.8 μM saturating final concentration) and absorbance was recorded. Initial rates were first corrected for background signal, then plotted against H3(1-53) concentrations. Fit to the Michaelis-Menten equation provided corresponding kinetic parameters.
(§1) Kinetic behavior for 8-aza-SAM against MTases (acceptor sat.)—Briefly, kinetic parameters were determined at 20° C. in a UV-Star 96-well flat bottom plate (Greiner Bio-One, #655801) by continuous monitoring of absorbance at 282 nm using a SpectraMax M5 instrument (Molecular Devices). As for SAM experiments, the measurements consisted of two experimental subsets: MTase reactions (both 8-aza-SAM and acceptor added) and MTase blanks (8-aza-SAM was added without acceptor to account for natural 8-aza-SAM decomposition). The 250-μL (60-μL) reaction mixtures from a same row contained 50 mM phosphate buffer pH=7.60 (7.80), 1 mM βME, 10% glycerol (5% glycerol, 100 μM MgCl2), 4 μM coupling deaminase TM0936, either 1.5 μM CePRMT5 or 402 nM TbPRMT7 (or 610 nM GsSDMT) and various 8-aza-SAM concentrations. […] Initial rates were first corrected for background signal, then plotted against 8-aza-SAM concentrations and fitted to the Michaelis-Menten equation to yield corresponding kinetic parameters.
where [MTase] and [8-aza-SAM] are the total concentration of methyltransferase and methyl donor, respectively; Km is the Michaelis constant, Kf is the substrate inhibition constant and kcat is the turnover for 8-aza-SAM substrate.

[2] = target: T2, GsSDMT (Galdieria sulphuraria, UniProt M2XPA0); assay: 1-Step EZ-MTase UV-based coupled assay, GsSDMT kinetics; format: biochemical; settings: for Km / kcat: pH=7.80, co-substrate saturating
T2 sequence (M2XPA0 2-297): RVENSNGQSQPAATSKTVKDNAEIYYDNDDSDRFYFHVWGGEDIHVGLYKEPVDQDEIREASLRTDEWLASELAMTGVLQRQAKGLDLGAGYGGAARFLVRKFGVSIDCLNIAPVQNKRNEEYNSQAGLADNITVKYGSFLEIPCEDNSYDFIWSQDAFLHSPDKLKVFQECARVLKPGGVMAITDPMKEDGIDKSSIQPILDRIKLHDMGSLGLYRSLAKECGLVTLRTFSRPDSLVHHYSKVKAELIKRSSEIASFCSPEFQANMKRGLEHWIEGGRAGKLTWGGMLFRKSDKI
Procedure: Kinetic behavior for sarcosine against GsSDMT (SAM sat.)—Experiments were conducted following matching CePRMT5 protocol above. Briefly, the 100-μL mixtures from a same row contained 100 mM phosphate buffer pH=7.80, 1 mM βME, 5% glycerol, 100 μM MgCl2, 4 μM coupling deaminase TM0936, 976 nM GsSDMT and various sarcosine concentrations (0.5-12.5 mM; in the first well, sarcosine was omitted to account for background signal—natural decomposition of SAM). Reactions started upon addition of SAM (750 μM saturating final concentration), 60-μL volumes were transferred onto UV plate and absorbance was recorded. Initial rates were first corrected for background signal, and then plotted against sarcosine concentrations. Fit to the Michaelis-Menten equation provided corresponding kinetic parameters.
Kinetic behavior for SAM against GsSDMT (sarcosine sat.)—Experiments were conducted following matching CePRMT5 protocol above. Briefly, the measurements consisted of two experimental subsets: MTase reactions (both SAM and sarcosine added) and MTase blanks (SAM was added without sarcosine to account for natural SAM decomposition). The 100-μL reaction mixtures from a same row contained 100 mM phosphate buffer pH=7.80, 1 mM βME, 5% glycerol, 100 μM MgCl2, 4 μM coupling deaminase TM0936, 195 nM GsSDMT and various SAM concentrations (49.9-750.2 μM). Reactions started upon addition of either sarcosine (10 mM saturating final concentration; MTase reactions) or water (MTase blanks), 60-μL volumes were transferred onto UV plate and absorbance was recorded at 263 nm. Initial rates were first corrected for background signal, and then plotted against SAM concentrations. Fit to the Michaelis-Menten equation provided corresponding kinetic parameters.
as §1

[3] = target: T3, deaminase TM0936 (Thermotoga maritima, UniProt Q9X034); assay: Deamination by coupling enzyme TM0936; format: biochemical
T3 construct: polyhistidine; made in house; host or cells: bacteria
T3 sequence (Q9X034 1-406): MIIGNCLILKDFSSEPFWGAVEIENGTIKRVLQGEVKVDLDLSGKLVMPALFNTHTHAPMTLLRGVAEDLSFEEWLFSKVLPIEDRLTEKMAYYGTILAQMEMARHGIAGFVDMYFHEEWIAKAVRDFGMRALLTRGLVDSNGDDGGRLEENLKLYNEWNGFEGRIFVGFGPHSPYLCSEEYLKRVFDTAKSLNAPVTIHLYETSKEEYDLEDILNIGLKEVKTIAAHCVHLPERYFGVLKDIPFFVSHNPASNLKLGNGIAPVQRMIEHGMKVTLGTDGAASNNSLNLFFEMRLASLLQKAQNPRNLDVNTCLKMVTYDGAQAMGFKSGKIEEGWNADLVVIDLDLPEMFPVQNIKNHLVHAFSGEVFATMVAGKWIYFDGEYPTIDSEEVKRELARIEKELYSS
Procedure: FIG. 9A-9D. Sinefungin is a positive control compatible with the 1-Step EZ-MTase assay. (A) MTAN-based assays catabolize the methyltransferase inhibitor sinefungin (SIN). […] (C) pH-dependence of the reaction between sinefungin and TM0936. […] (D) Inhibition of the sarcosine/dimethylglycine methyltransferase by sinefungin. […] The initial methyltransfer rates were recorded at 263 nm. Further analysis provided the inhibition constant Ki (1.8±0.4 μM).

[4] = target: T1, NcDIM-5; settings: literature values; cited from earlier work
[5] = pH=9.50, 25 μM SAM, 7.6 nM NcDIM-5

Compound	acceptance of cofactor analog as substrate [1]	Km [1, 5]	kcat [1, 5]	substrate inhibition (inhibitory behavior of the analog) [2]	Km [2]	kcat [2]	reactivity as TM0936 substrate [3]	Km [4]	kcat [4]
C[S+](CC[C@H](N)C(=O)O)C[C@H]1O[C@@H](n2nnc3c(N)ncnc32)[C@H](O)[C@@H]1O (stereo partly drawn) [8-aza-SAM, S-8-aza-adenosyl-L-methionine]	unable to accept; also recorded: unable to process	NOT A	NOT A	not observed	443 ± 33 µM	1.35 ± 0.05 s⁻¹	–	–	–
C[S+](CC[C@H](N)C(=O)O)C[C@H]1O[C@@H](n2cnc3c(N)ncnc32)[C@H](O)[C@@H]1O (stereo partly drawn) [SAM, S-adenosyl-L-methionine]	–	–	–	–	95 ± 18 µM	0.7 ± 0.033 s⁻¹	unable to catabolize; also recorded: inability to catabolize	0.68 ± 0.2 µM	0.000861 s⁻¹
